The values that follow come from paper PMC4809036, “Antitumor effects of cecropin B-LHRH’ on drug-resistant ovarian and endometrial cancer cells” (BMC Cancer, 2016).

“Also recorded” adds a separate entry of the source. No end group written: not given here.

Series [1] relates to ES-2 tumors xenografted into nude mice. In words: ES-2 xenograft study in nude mice. Format: in vivo, BALB/c-nu mice. On the procedure: (§1) Five- to six-week-old female (15–20 g) athymic nude mice (BALB/c-nu) were obtained from Shanghai SLAC Laboratory Animal Corporation, China. The animals were housed in sterile cages under laminar flow hoods in a temperature controlled room with a 12-hour light/12-hour dark cycle, and fed autoclaved chow and water ad libitum. All experiments were carried out in accordance with the guidelines for the welfare ethics of experimental animals. All the animal-related procedures were approved by the Animal Ethical Committee of Zhejiang University.
(§2) Cultured ES-2 ovarian cancer cells were resuspended at 1 × 10^7/ml and inoculated subcutaneously into the nude mouse armpit. When tumors reached 60 mm^3, they were extracted, cut into pieces of about 2 mm^3, and inoculated subcutaneously into the nude mouse armpit. When the tumors reached an average volume of about 100 mm^3, the mice were randomly divided into five groups (n = 10). Groups 1–3 received intra-tumor injection of CB-LHRH’ twice daily at 12.5, 25 or 50 mg/kg^.d, respectively.
Tumor volumes were assessed every 3 d as 0.5 × length × width^2 (where length is the longest diameter across the tumor and width the corresponding perpendicular diameter as measured by calipers). On day 13, 4 h after the last dose, mice were sacrificed, and tumors excised and weighed; tumor growth inhibition rate was derived as (1-tumor weight treated/tumor weight control) × 100 %.
Anti-tumor activity was evaluated as relative growth of tumor volume (T/C, value), the mean relative tumor volume (RTV) for the treatment group divided by the mean RTV for the control group, as follows: T/C (%) = TRTV/CRTV X 100 %. RTV = Vt/V0, where Vt is the volume on any given day, and V0 the volume at treatment start.

For series [2], the system named is four cancer cell lines (SKOV-3, ES-2, NIH:OVCAR-3, HEC-1A). Also on record: method as in ATCC Global Bioresource Center (USA). As to conditions: ref ATCC Global Bioresource Center (USA); cited from earlier work.
For series [3], the system named is Acinetobacter baumannii. In words: Antibacterial assay (agar dilution), Acinetobacter baumannii. Format: cell-based. As to conditions: Muller Hinton’s agar, 22 h at 35 °C, clinical isolates. As for the experimental part:
(§3) The antibacterial activity of CB-LHRH’ was evaluated by the agar dilution method. Muller Hinton’s agar medium plates containing serial dilutions of CB-LHRH’ were inoculated with 2 μL of tenfold-diluted 0.5 McF bacteria and incubated for 22 h at 35 °C. The lowest concentration of CB-LHRH’ inhibiting bacterial growth was considered the minimal inhibitory concentration (MIC). Nine clinical strains of the following species were evaluated: Staphylococcus aureus, Klebsiella pneumoniae, Escherichia coli, Enterobacter cloacae, Pseudomonas aeruginosa, and Acinetobacter baumannii.
In general terms: In agar dilution, organisms are placed on agar that contains the substance at set levels.

Series [4] has as its system Escherichia coli. Briefly: Antibacterial assay (agar dilution), Escherichia coli. Format: cell-based. The settings on record: Muller Hinton’s agar, 22 h at 35 °C, clinical isolates. On the procedure: as §3
The test system of series [5] is Enterobacter cloacae. Briefly: Antibacterial assay (agar dilution), Enterobacter cloacae. Format: cell-based. The settings on record: Muller Hinton’s agar, 22 h at 35 °C, clinical isolates. As for the experimental part:
as §3

Series [6] deals with Klebsiella pneumoniae. In words: Antibacterial assay (agar dilution), Klebsiella pneumoniae. The settings on record: Muller Hinton’s agar, 22 h at 35 °C, clinical isolates. It counts as cell-based. On the procedure:
as §3

Series [7] has as its system Pseudomonas aeruginosa. In words: Antibacterial assay (agar dilution), Pseudomonas aeruginosa. It counts as cell-based. As to conditions: Muller Hinton’s agar, 22 h at 35 °C, clinical isolates, listed as Cecropin B-LHRH’. On the procedure: as §3
Series [8] deals with Staphylococcus aureus. In words: Antibacterial assay (agar dilution), Staphylococcus aureus. It counts as cell-based. As to conditions: Muller Hinton’s agar, 22 h at 35 °C, clinical isolates, listed as Cecropin B-LHRH’. On the procedure:
as §3

The test system of series [9] is nude mice. In words: General toxicity (survival, body weight) in ES-2 xenograft mice. It counts as in vivo, BALB/c-nu mice. The settings on record: for surviving mice: intra-tumoral, twice daily, thirteen days later, n = 10 (PBS: 9 survived). On the procedure: as §1, §2
General toxicity was evaluated based on body weight, measured weekly.

The subject of series [10] is guinea pigs. Briefly: Hypersensitization test in guinea pigs. As to conditions: n = 6.
Description: Under approved animal research protocol standards, the hypersensitive reaction against CB-LHRH’ (2 mg/mL, equal to 438 μM) was assessed in guinea pigs. According to the Chinese Pharmacopoeia, six animals with an average weight of 250 g (XiFengYang Special Economic Animal Farm, Huzhou, China) were administered an intraperitoneal injection of 0.5 mL of CB-LHRH’ every other day three times, while three additional animals received PBS physiological saline injections. Of the six animals administered CB-LHRH’, three received an intravenous injection of 1 mL CB-LHRH’ at day 15, and the remaining three at day 22. Allergic reactions, such as piloerection, sneezing, lacrimation, dyspnoea, and hyperspasmia, were then monitored for the next 30 min.
The target of series [11] is T1, LHRH receptor (LHRHr) (Rattus norvegicus, UniProt P30969).
T1 chain: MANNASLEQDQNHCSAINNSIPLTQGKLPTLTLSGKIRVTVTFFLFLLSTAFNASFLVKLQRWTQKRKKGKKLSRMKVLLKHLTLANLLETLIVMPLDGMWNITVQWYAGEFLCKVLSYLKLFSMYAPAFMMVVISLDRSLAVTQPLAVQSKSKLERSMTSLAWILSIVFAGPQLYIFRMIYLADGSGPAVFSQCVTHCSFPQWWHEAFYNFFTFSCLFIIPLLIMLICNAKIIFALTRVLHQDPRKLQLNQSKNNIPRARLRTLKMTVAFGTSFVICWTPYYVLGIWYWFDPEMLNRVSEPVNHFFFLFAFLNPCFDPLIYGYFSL
Briefly: radioligand saturation binding (Scatchard), rat pituitary membranes.

A word on the T/C: it is the result in the treated group divided by that in the control group, in per cent. As usually defined, the MIC is the smallest concentration in the dilution series that meets the test's criterion for growth inhibition. Low values mean a more susceptible organism, high ones a less susceptible organism. By Kd is commonly meant the free concentration of one partner at which half of the binding sites on the other are occupied at equilibrium, for simple one-to-one binding.

In the case of `N.N.[Cl][Pt][Cl]` [Cisplatin], in series [1] (cisplatin 0.67 mg/kg.d (2 mg/kg once every 3 days), d 1, Mean ± SD, n = 10 per group), the “Tumor Volume, d 1” value is on record as 343.91 ± 123.06 mm^3. The “Tumor Volume, d 13” value in series [1] (cisplatin 0.67 mg/kg.d (2 mg/kg once every 3 days), d 13, Mean ± SD, ** P < 0.01 vs PBS) is listed as 913.16 ± 142.64** mm^3. In [1] (cisplatin 0.67 mg/kg.d (2 mg/kg once every 3 days), d 13, RTV treated/RTV PBS control, ≤60 % = active), this molecule showed a T/C of 42%. Besides, in [1] (cisplatin 2 mg/kg once every 3 days, d 13, Mean ± SD, **P < 0.01 vs PBS), the “Tumor Weight” value is 1.09 ± 0.25 ** g. Besides, the “resistance of the cell lines to the drug” value in [2] is given as “resistant”.
Consider `COc1cccc2c1C(=O)c1c(O)c3c(c(O)c1C2=O)C[C@@](O)(C(=O)CO)C[C@@H]3O[C@H]1C[C@H](N)[C@H](O)[C@H](C)O1` [doxorubicin], for which, in series [2], the “resistance of the cell lines to the drug” value is “resistant”.
“KWKVFKKIEKMGRNIRNGIVKAGPAIAVLGEAKALSYGLRPG [CB-LHRH’]”: the MIC in [3] is 1.93 to 7.72 µM; in series [4], 3.86 to 7.72 µM; in [5], 3.86 to 7.72 µM; in series [6], 3.86 to 7.72 µM; in series [7], “> = 15.44 μM”; in series [8], above 15.44 µM. Further, the surviving mice in series [9] (CB-LHRH’ 12.5 mg/kg.d) is on record as 8; in series [9] (CB-LHRH’ 25 mg/kg.d), 9; in series [9] (CB-LHRH’ 50 mg/kg.d) it was 7. Further, the animal weights entry in series [9] (CB-LHRH’ intra-tumoral, by day 13) was “no differences were found in animal weights”. The hypersensitivity / anaphylaxis result in [10] (0.5 mL of 2 mg/mL i.p. every other day three times, then 1 mL i.v. at day 15 or 22, monitored 30 min, data not shown) is “no hypersensitivity; also recorded: No anaphylaxis occurred in any of the six guinea pigs; also recorded: no hypersensitive reactions in guinea pigs”. In addition, in [10] (0.5 mL of 2 mg/ml i.p. every other day three times), the survival entry is listed as “survived the 15 days of treatment”.
Regarding diphtheria toxin, the “resistance of the cell lines to the drug” value in series [2] is “resistant”.

B1: Cecropin B-LHRH' (CB-LHRH') (peptide)
chain: KWKVFKKIEKMGRNIRNGIVKAGPAIAVLGEAKALSYGLRPG
modifications: also: 125I-labelled
Molecule B1 gave a Kd in series [11] of 0.253 nM.
